# Values quoted from earlier work as cited in patent US20220251564A1, “p16INK4a INHIBITOR FOR PREVENTING OR TREATING HUNTINGTON'S DISEASE” (SORBONNE UNIVERSITE, priority 2019, published 2022).
# System: neurons
# Conditions: in vitro
smiles,measurement,value
COc1cc([C@@H]2c3cc4c(cc3[C@@H](O[C@@H]3O[C@@H]5CO[C@@H](C)O[C@H]5[C@H](O)[C@H]3O)[C@H]3COC(=O)[C@H]23)OCO4)cc(OC)c1O [Etoposide],activation of neurons,activate neurons in vitro
